The text below walks through data of patent publication US6376497B1, “Antifungal azole derivatives having a fluorinated vinyl group and process for preparing same” (Korea Research Institute of Chemical Technology, priority 1999, dated 2002).

Data set [1] has as its system Torulopsis glabrata B. 16205. Nature of the data set: In vitro antifungal activity, microbroth dilution MIC. It is filed as cell-based. The following applies: Nakaseomyces glabratus, 4 to 48 hours. An outline of the steps:
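Broth microdilution adapted from NCCLS M27, in RPMI-1640 with 0.165 M MOPS, pH 7.0. Yeast or mould inoculum at 2×10^3 CFU/ml was mixed 1:1 with DMSO-derived compound solutions (200 to 0.10 μg/ml before mixing) and incubated at 35 °C for 4 to 48 h. MIC was the concentration showing no growth.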
On the technique in general: In broth dilution the organism is exposed to a series of concentrations in liquid medium.

Data set [2] deals with mouse. The note with it: oral; cited from earlier work.
Setting [3] is: B.16205, RPMI-1640, 35° C., no growth observed, read-out: Minimal inhibitory concentration(MIC), T. glabrata B. 16205.
[4] abbreviates: T. glabrata B. 16205, RPMI-1640, 35° C., read-out: Minimal inhibitory concentration (MIC).

Converted amounts (≈) assume the structure as drawn. Read-outs that look alike come from different tables or passages of the source.

As a reminder, the LD50 is the dose expected to kill half of the subjects tested. For `CCC(C)n1ncn(-c2ccc(N3CCN(c4ccc(OCC5COC(Cn6cncn6)(c6ccc(Cl)cc6Cl)O5)cc4)CC3)cc2)c1=O` (centres unmarked) [itraconazole, reference compound], the MIC in data set [1] (setting [3]) and in data set [1] (setting [4]) was 50 µg/mL (≈ 70.9 µM) each time. The LD50 in data set [2] is listed as 320 mg/kg.

For `OC(Cn1cncn1)(Cn1cncn1)c1ccc(F)cc1F` [fluconazole, reference compound], the MIC in data set [1] (setting [3]) and in data set [1] (setting [4]) was 100 µg/mL (≈ 327 µM) in each case.
